{"source": "patent US20230332103A1", "about": "“Methods and Compositions for Generating Human Forebrain Neural Progenitor Cells and for Maturation Thereof to Parvalbumin+ Interneurons” (Trailhead Biosystems Inc., priority 2021, published 2023)", "key": {"[1]": {"test_system": "forebrain-committed neural stem cells (stage 1 neural stem cells)", "experiment": "factor criticality analysis (dynamic profile analysis) of stage 2 recipe", "assay_type": "cell-based, human", "experimental": "(§1) To assess the impact of the elimination of each validated factor, dynamic profile analysis was used and compared the expression level of genes of interest in absence of each finalized factor while others are present.\nIn the stage 2 recipe, each of the four finalized factors were removed while the other three factors remained present and expression levels of NKX2-1, PAX6 and NKX2-2 were assessed compared to presence of all four factors. The results are summarized in FIG. 13A-B. Absence of PD0325901 reduced the levels of NKX2-1 and NKX2-2 while increasing PAX6 from 5000 to 3200, 100 to 0 and 0 to 5000, respectively. […] Removing XAV939 reduced the levels of NKX2-1 from 5000 to 3000, while increasing both PAX6 and NKX2-2 to 10000 and 200, respectively. Another observation was the interaction between XAV939 and Purmorphamine. In the absence of XAV939, the impact of Purmorphamine on NKX2-1 became negative and, as it is shown in interaction plot of FIG. 14, the level of NKX2-1 is higher when both factors are present."}, "[2]": {"test_system": "human pluripotent stem cells", "experiment": "HD-DoE 12-factor experiment for stage 1 recipe, gene expression by quantitative PCR after 3 days", "assay_type": "cell-based", "conditions": "for factor contribution on expression of SIX3: model optimized for maximal expression of SIX3, 3-day treatment; for factor contribution on expression of FEZF2: model optimized for maximum expression of FEZF2", "source_text": "This example utilizes a method of High-Dimensional Design of Experiments (HD-DoE), as previously described in Bukys et al. (2020) […] 23:101346. The method employs computerized design geometries to simultaneously test multiple process inputs and offers mathematical modeling of a deep effector/response space. The method allows for finding combinatorial signaling inputs that control a complex process, such as during cell differentiation. It allows testing of multiple plausible critical process parameters, as such parameters impact output responses, such as gene expression. Because gene expression provides hallmark features of the phenotype of, for example, a human cell, the method can be applied to identify, and understand, which signaling pathways control cell fate. In the current example, the HD-DOE method was applied with the intent to find conditions for induction of […] neural progenitor-expressed genes, directly from the pluripotent stem cell state. To develop the recipe for each stage, the impact of agonists and antagonists of multiple signaling pathways (herein called effectors) on the expression of two sets of 53 pre-selected genes, after a 3-day treatment, has been tested and modeled. These effectors are small molecules or proteins that are commonly used during stepwise differentiation of stem cells to specific fates. Choice of the effectors were based on current literature on neural induction in forebrain region of developing brain and differentiation of stem cells to neural progenitors. To test the effectors, experiments with at least 8 factors were designed that can assess the response of cells to 48 or more different combinations of effectors in a range of concentrations. To analyze the models, we focused on expression of genes involved in development and patterning of the anterior neuroectoderm and forebrain including OTX2 (Hoch et al. (2015) Cell Reports 12:482-494), SIX3 (Lagutin et al. (2003) Genes & Development 17:368-379) and FEZF2 (Zhang et al. (2014) Development 141:4794-[…]). At later stages we focused on dorsoventral patterning of telencephalon and gene expressed in ventral forebrain including NKX2-1 and absence of PAX6 which is a dorsal forebrain marker (Stoykova et al. (2000) J. Neurosci. 20:8042-8050). The impact of each effector on gene expression level is defined by a parameter called factor contribution that is calculated for each effector during the modeling. To identify the recipe for stage 1 of differentiation, 96 different combinations of effectors generated using Design-of-Experiments compression through D-optimality were robotically prepared. The effector combinations were prepared in a basal media and were subsequently added to the cells, which were then allowed to differentiate. Three days later RNA extraction was performed, and gene expression was obtained using quantitative PCR analysis. […] Solutions within the tested space could then be explored to address desirability. Optimizing for maximal expression of SIX3 at 3300 and FEZF2 1355 expression values led to robust solutions. This model was derived from testing 12 effectors including AGN193109, LDN193189, CHIR99021, XAV939, IGF2, Purmorphamine, 4-oxo-RA, TTNPB, SR11237, FGF8, PD0325901 and […]. […] The model was also optimized for maximum expression of FEZF2 separately at 3576 expression value to find any additional factors that can boost expression of forebrain genes. […] To find the set of factors that have the potential to optimize all 3 genes in this experiment, a new assessment was done through dynamic profile analysis with focus on maximal expression of OTX2, FEZF2 and SIX3."}, "[3]": {"test_system": "human pluripotent stem cells", "experiment": "factor criticality analysis (dynamic profile analysis) of stage 1 recipe", "assay_type": "cell-based", "set-up": "unit not given here", "conditions": "other five factors present; for expression level of FEZF2 when the effector is removed: 2000 with all six factors; for expression level of SIX3 when the effector is removed: 3000 with all six factors; for expression level of OTX2 when the effector is removed: 5500 with all six factors", "experimental": "as §1\nIn the stage 1 recipe, each of the six finalized factors were removed individually while the other five factors were present and expression levels of forebrain genes was assessed compared to the presence of all six factors together. The results are summarized in FIG. 11A-B. When LDN193189 was removed, expression levels of FEZF2, OTX2 and SIX3 were decreased drastically from 2000 to 1000, 5500 to 4000 and 3000 to 0, respectively. […] When Purmorphamine was removed, levels of FEZF2 and SIX3 were decreased to 1000 and below 3000, while levels of OTX2 increased to 6500."}, "[4]": {"test_system": "human pluripotent stem cells", "experiment": "additional HD-DoE experiment for stage 1 (forebrain differentiation from pluripotency), optimized for FEZF2", "assay_type": "cell-based", "conditions": "for impact on expression of FEZF2: dynamic profile, FIG. 6; for factor contribution on expression of FEZF2: positive impact, additional stage 1 experiment optimized for FEZF2, FIG. 5", "experimental": "To identify the recipe for stage 1 of differentiation, 96 different combinations of effectors generated using Design-of-Experiments compression through D-optimality were robotically prepared. The effector combinations were prepared in a basal media and were subsequently added to the cells, which were then allowed to differentiate. Three days later RNA extraction was performed, and gene expression was obtained using quantitative PCR analysis. The data were normalized and modeled using partial least squares regression analysis to the effector design, resulting in the generation of gene-specific models, which after model tuning for maximal Q2 predictive power, provided explanation of the effectors ability to control the expression of individual genes, combinatorially, and individually. Solutions within the tested space could then be explored to address desirability.\nTo further enhance the conditions for forebrain differentiation from pluripotency, an additional HD-DoE experiment was performed. Additional gene regulatory models were obtained that were used for preparation of the differentiation protocol. The factors in this experiment included LDN193189, PD173074, BLU9931, Purmorphamine, SC79, MK2206, ZM336372, PD0325901, CHIR99021, XAV939, UCLA-GP130, Tofacitinib and GO6983. […] Dynamic profile analysis was also used to assess the interaction between the effectors."}, "[5]": {"conditions": "dynamic profile analysis, FIG. 4"}}}
{"compound": "c1ccc2c(-c3cnn4cc(-c5ccc(N6CCNCC6)cc5)cnc34)ccnc2c1", "note": "[LDN193189]", "values": [{"measurement": "expression level of PAX6 in the absence of the effector", "setting": "[1]; stage 2 recipe, other three factors present, 0 with all four factors", "result": "below 0"}, {"measurement": "expression level of NKX2-2 in the absence of the effector", "setting": "[1]; stage 2 recipe, other three factors present, 100 with all four factors", "result": "below 0"}, {"measurement": "expression level of NKX2-1 in the absence of the effector", "setting": "[1]; stage 2 recipe, other three factors present, 5000 with all four factors", "result": "did not significantly change"}, {"measurement": "factor contribution, important input for high expression of SIX3", "setting": "[2]; FIG. 2 legend, model optimized for maximum expression of SIX3 as printed", "result": 24.9}, {"measurement": "impact on expression of OTX2", "setting": "[2]; [5]", "result": "positive impact"}, {"measurement": "factor contribution on expression of OTX2", "setting": "[2]; positive impact, model of maximum expression of OTX2", "result": 8}, {"measurement": "factor contribution on expression of SIX3", "setting": "[2]; positive impact", "result": 16}, {"measurement": "factor contribution on expression of FEZF2", "setting": "[2]; positive impact", "result": 25}, {"measurement": "expression level of FEZF2 when the effector is removed", "setting": "[3]", "result": 1000}, {"measurement": "expression level of SIX3 when the effector is removed", "setting": "[3]", "result": 0}, {"measurement": "expression level of OTX2 when the effector is removed", "setting": "[3]", "result": 4000}, {"measurement": "impact on expression of FEZF2", "setting": "[4]", "result": "positive impact"}, {"measurement": "factor contribution on expression of FEZF2", "setting": "[4]", "result": 18}]}
{"compound": "c1ccc2c(Oc3nc(Nc4ccc(N5CCOCC5)cc4)c4ncn(C5CCCCC5)c4n3)cccc2c1", "note": "[Purmorphamine]", "values": [{"measurement": "impact on NKX2-1 in the absence of XAV939", "setting": "[1]; interaction between XAV939 and Purmorphamine, FIG. 14", "result": "negative"}, {"measurement": "impact on expression of FEZF2", "setting": "[2]; [5]", "result": "positive impact"}, {"measurement": "impact on expression of OTX2", "setting": "[2]; [5]", "result": "negative effect"}, {"measurement": "impact on expression of SIX3", "setting": "[2]; [5]", "result": "positive impact"}, {"measurement": "factor contribution on expression of SIX3", "setting": "[2]; positive impact", "result": 5}, {"measurement": "factor contribution on expression of FEZF2", "setting": "[2]; positive impact", "result": 7}, {"measurement": "expression level of FEZF2 when the effector is removed", "setting": "[3]", "result": 1000}, {"measurement": "expression level of SIX3 when the effector is removed", "setting": "[3]", "result": "below 3000"}, {"measurement": "expression level of OTX2 when the effector is removed", "setting": "[3]", "result": 6500}, {"measurement": "impact on expression of FEZF2", "setting": "[4]", "result": "positive impact"}, {"measurement": "factor contribution on expression of FEZF2", "setting": "[4]", "result": 11}]}
